Test results taken from ChEMBL document CHEMBL3120061, “Novel spiroketal pyrrolidine GSK2336805 potently inhibits key hepatitis C virus genotype 1b mutants: from lead to clinical compound” (J Med Chem, 2014).
pEC50, pIC50: −log10 of the molar value.

Key:
[1] = Oral bioavailability in CD rat; assay type: ADME, organism-based; details: in vivo
[2] = In vivo clearance in CD rat relative to hepatic blood flow; assay type: ADME, organism-based, Liver; details: read-out: CLH
Hepatitis C virus [3] = experiment: Antiviral activity against Hepatitis C virus genotype 1b harboring NS5A Y93H mutant gene in Huh-luc/neo-ET replicon cells after 48 hrs by transient replicon mutant-based luciferase assay; assay type: functional, organism-based, Hepacivirus hominis
Hepatitis C virus [4] = experiment: Antiviral activity against Hepatitis C virus genotype 1b harboring NS5A L31V mutant gene in Huh-luc/neo-ET replicon cells after 48 hrs by transient replicon mutant-based luciferase assay; assay type: functional, organism-based, Hepacivirus hominis
Hepatitis C virus [5] = experiment: Antiviral activity against Hepatitis C virus genotype 1b harboring NS5A L28V mutant gene in Huh-luc/neo-ET replicon cells after 48 hrs by transient replicon mutant-based luciferase assay; assay type: functional, organism-based, Hepacivirus hominis
Hepatitis C virus [6] = experiment: Ratio of EC50 for Hepatitis C virus genotype 1b harboring NS5A L31V mutant gene to EC50 for Hepatitis C virus genotype 1b harboring wild type NS5A in Huh-luc/neo-ET replicon cells by replicon-based luciferase assay; assay type: functional, Hepacivirus hominis
Hepatitis C virus [7] = experiment: Antiviral activity against Hepatitis C virus genotype 1b in Huh-luc/neo-ET replicon cells after 48 hrs by replicon-based luciferase assay; assay type: functional, organism-based, Hepacivirus hominis
Hepatitis C virus [8] = experiment: Antiviral activity against Hepatitis C virus genotype 1a in Huh-luc/neo-ET replicon cells after 48 hrs by replicon-based luciferase assay; assay type: functional, organism-based, Hepacivirus hominis; details: subtype 1a
Hepatitis C virus [9] = experiment: Antiviral activity against Hepatitis C virus genotype 1 infected in patient assessed as decrease in log10 HCV RNA copies/ml at 120 mg administered as single dose; assay type: functional, Hepacivirus hominis
Hepatitis C virus [10] = experiment: Antiviral activity against Hepatitis C virus genotype 1b in Huh-luc/neo-ET replicon cells assessed as log10 reduction of HCV RNA at 10 times EC90 after 20 days by RNA reduction assay; assay type: functional, Hepacivirus hominis
Hepatitis C virus [11] = experiment: Antiviral activity against Hepatitis C virus genotype 1b in Huh-luc/neo-ET replicon cells assessed as log10 reduction of HCV RNA at 3 to 10 times EC90 after 5 days by RNA reduction assay; assay type: functional, Hepacivirus hominis
Hepatitis C virus [12] = experiment: Antiviral activity against Hepatitis C virus genotype 1 infected in patient assessed as decrease in log10 HCV RNA copies/ml at 1 mg administered as single dose; assay type: functional, Hepacivirus hominis
Hepatitis C virus [13] = experiment: Antiviral activity against Hepatitis C virus genotype 1b in Huh-luc/neo-ET replicon cells assessed as log10 reduction of HCV RNA at 3 times EC90 after 20 days by RNA reduction assay; assay type: functional, Hepacivirus hominis
[14] = Binding affinity to human alpha1 AGP; assay type: ADME; details: isolated protein
Albumin = Albumin (Homo sapiens, UniProt P02768); experiment: Binding affinity to human serum albumin; assay type: ADME; details: isolated protein
Albumin, sequence (P02768 whole entry): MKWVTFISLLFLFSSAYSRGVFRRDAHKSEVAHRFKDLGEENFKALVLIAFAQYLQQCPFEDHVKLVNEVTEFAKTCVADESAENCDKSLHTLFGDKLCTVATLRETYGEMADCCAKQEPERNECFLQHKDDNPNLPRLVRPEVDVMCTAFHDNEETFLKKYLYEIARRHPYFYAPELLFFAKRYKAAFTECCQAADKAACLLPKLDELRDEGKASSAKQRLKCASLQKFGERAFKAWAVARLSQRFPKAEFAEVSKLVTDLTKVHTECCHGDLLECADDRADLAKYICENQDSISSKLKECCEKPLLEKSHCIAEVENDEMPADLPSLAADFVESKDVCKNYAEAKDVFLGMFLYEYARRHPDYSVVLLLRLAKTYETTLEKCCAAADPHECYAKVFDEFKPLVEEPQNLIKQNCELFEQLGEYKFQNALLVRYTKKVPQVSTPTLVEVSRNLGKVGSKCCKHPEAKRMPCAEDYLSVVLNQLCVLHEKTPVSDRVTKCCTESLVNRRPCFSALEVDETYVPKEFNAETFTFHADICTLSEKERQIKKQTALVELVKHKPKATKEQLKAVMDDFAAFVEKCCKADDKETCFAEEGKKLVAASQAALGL

Cytochrome P450 3A4 = Cytochrome P450 3A4 (Homo sapiens, UniProt P08684); experiment: Inhibition of CYP3A4 (unknown origin); assay type: ADME
Cytochrome P450 3A4, sequence (P08684 whole entry): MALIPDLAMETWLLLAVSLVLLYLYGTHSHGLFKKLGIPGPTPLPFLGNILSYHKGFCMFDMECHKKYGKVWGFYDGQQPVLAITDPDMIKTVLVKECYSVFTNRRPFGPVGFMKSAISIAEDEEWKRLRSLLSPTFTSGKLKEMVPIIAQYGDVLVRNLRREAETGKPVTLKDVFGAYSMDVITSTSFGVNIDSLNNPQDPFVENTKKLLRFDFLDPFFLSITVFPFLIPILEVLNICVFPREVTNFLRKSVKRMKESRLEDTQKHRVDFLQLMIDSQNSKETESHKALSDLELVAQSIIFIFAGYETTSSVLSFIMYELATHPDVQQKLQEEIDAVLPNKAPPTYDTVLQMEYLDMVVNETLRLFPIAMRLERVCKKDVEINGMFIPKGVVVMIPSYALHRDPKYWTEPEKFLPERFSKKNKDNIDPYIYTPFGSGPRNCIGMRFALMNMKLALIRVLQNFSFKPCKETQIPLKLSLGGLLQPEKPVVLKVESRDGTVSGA

Cytochrome P450 2C19 = Cytochrome P450 2C19 (Homo sapiens, UniProt P33261); experiment: Inhibition of CYP2C19 (unknown origin); assay type: ADME
Cytochrome P450 2C19, sequence (P33261 whole entry): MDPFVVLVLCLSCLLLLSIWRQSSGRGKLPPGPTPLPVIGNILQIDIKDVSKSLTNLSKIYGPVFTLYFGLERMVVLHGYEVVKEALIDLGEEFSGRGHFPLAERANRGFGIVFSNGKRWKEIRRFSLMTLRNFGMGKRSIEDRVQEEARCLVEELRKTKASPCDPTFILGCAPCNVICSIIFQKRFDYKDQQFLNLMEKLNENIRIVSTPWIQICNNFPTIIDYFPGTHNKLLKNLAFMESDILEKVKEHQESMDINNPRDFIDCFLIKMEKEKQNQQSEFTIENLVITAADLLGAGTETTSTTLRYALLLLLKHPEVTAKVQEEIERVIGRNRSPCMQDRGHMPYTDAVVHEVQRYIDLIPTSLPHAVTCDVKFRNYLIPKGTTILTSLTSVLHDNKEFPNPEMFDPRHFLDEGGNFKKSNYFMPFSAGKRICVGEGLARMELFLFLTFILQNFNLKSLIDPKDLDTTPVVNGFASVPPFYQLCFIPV

Cytochrome P450 2D6 = Cytochrome P450 2D6 (Homo sapiens, UniProt P10635); experiment: Inhibition of CYP2D6 (unknown origin); assay type: ADME
Cytochrome P450 2D6, sequence (P10635 whole entry): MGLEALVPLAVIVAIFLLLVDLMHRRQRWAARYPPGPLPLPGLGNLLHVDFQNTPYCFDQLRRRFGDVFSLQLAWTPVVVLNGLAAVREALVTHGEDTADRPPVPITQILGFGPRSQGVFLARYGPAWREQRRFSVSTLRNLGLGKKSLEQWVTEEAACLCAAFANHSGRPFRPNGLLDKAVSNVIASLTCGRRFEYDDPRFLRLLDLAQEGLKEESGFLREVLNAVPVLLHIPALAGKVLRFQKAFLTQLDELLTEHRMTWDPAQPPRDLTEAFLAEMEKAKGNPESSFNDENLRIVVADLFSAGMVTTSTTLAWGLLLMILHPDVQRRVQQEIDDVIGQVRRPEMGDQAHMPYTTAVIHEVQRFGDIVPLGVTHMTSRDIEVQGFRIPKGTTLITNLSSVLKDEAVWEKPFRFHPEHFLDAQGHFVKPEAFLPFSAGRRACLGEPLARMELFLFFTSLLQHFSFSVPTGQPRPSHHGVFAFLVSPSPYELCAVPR

Cytochrome P450 2C9 = Cytochrome P450 2C9 (Homo sapiens, UniProt P11712); experiment: Inhibition of CYP2C9 (unknown origin); assay type: ADME
Cytochrome P450 2C9, sequence (P11712 whole entry): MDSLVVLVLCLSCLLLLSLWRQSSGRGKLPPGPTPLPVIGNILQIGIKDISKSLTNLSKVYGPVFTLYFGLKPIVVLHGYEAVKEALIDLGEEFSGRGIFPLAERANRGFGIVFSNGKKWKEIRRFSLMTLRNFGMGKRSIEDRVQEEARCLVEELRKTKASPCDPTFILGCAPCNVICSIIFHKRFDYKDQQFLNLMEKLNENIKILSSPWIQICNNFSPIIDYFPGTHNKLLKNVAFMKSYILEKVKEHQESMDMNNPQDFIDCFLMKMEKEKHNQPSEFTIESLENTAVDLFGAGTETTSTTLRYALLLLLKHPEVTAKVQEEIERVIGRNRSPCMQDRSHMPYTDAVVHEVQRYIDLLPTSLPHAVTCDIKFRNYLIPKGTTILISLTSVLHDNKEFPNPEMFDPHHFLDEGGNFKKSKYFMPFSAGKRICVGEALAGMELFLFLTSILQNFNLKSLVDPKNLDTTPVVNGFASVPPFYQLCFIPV

Cytochrome P450 1A2 = molecular target: T1, Cytochrome P450 1A2 (Homo sapiens, UniProt P05177); experiment: Inhibition of CYP1A2 (unknown origin); assay type: ADME
T1 sequence (P05177 whole entry): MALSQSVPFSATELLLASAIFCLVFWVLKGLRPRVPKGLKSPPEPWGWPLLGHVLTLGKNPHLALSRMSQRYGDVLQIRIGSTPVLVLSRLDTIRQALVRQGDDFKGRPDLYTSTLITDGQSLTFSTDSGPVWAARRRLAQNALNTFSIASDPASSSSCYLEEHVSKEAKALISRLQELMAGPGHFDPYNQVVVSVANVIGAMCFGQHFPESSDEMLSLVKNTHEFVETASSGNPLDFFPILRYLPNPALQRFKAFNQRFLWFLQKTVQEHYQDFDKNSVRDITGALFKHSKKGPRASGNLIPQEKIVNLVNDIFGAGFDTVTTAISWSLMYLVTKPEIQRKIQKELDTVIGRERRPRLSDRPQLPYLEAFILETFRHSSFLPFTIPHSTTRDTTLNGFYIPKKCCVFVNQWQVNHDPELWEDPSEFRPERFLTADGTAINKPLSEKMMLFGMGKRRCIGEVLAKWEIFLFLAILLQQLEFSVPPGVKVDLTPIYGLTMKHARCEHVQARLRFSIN

[15] = Cytotoxicity against human HuhET cells infected with Hepatitis C virus up to 40 uM after 48 hrs by WST assay; assay type: cell-based
[16] = Half life in rat hepatocytes; assay type: ADME, cell-based, Hepatocyte
[17] = Half life in human hepatocytes; assay type: ADME, cell-based, Hepatocyte
[18] = Half life in cynomolgus monkey hepatocytes; assay type: ADME, cell-based, Macaca fascicularis, Hepatocyte
[19] = Half life in dog hepatocytes; assay type: ADME, cell-based, Canis lupus familiaris, Hepatocyte
[20] = Oral bioavailability in cynomolgus monkey; assay type: ADME, organism-based, Macaca fascicularis; details: in vivo
[21] = In vivo clearance in cynomolgus monkey relative to hepatic blood flow; assay type: ADME, organism-based, Macaca fascicularis, Liver; details: read-out: CLH
[22] = Oral bioavailability in beagle dog; assay type: ADME, organism-based, Canis lupus familiaris; details: in vivo
[23] = In vivo clearance in beagle dog relative to hepatic blood flow; assay type: ADME, organism-based, Canis lupus familiaris, Liver; details: read-out: CLH
Hepatitis C virus [24] = experiment: Ratio of EC50 for Hepatitis C virus genotype 1b harboring NS5A Y93H mutant gene to EC50 for Hepatitis C virus genotype 1b harboring wild type NS5A in Huh-luc/neo-ET replicon cells by replicon-based luciferase assay; assay type: functional, Hepacivirus hominis

COC(=O)N[C@H](C(=O)N1CC2(C[C@H]1c1ncc(-c3ccc(-c4ccc(-c5cnc([C@@H]6CC7(CN6C(=O)[C@@H](NC(=O)OC)C(C)C)OCCO7)[nH]5)cc4)cc3)[nH]1)OCCO2)C(C)C
bioavailability [1]: 9%
clearance [2]: 58 mL/min/kg
pEC50 (Hepatitis C virus [3]): 10.90
pEC50 (Hepatitis C virus [4]): 10.60
pEC50 (Hepatitis C virus [5]): 10.90
Ratio EC50 (Hepatitis C virus [6]): <=5
pEC50 (Hepatitis C virus [7]): 11.00
pEC50 (Hepatitis C virus [8]): 10.30

COC(=O)N[C@H](C(=O)N1CCC[C@H]1c1ncc(-c2ccc(-c3ccc(-c4cnc([C@@H]5CC6(CN5C(=O)[C@@H](NC(=O)OC)C(C)C)OCCO6)[nH]4)cc3)cc2)[nH]1)C(C)C
FC (Hepatitis C virus [9]): 2.95
FC (Hepatitis C virus [10]): 4
FC (Hepatitis C virus [11]): 2
FC (Hepatitis C virus [12]): 0.996
FC (Hepatitis C virus [13]): 3
Activity [14]: 86%
Activity (Albumin): 94%
pIC50 (Cytochrome P450 3A4): < 4.48
pIC50 (Cytochrome P450 2C19): < 4.48
pIC50 (Cytochrome P450 2D6): < 4.48
pIC50 (Cytochrome P450 2C9): < 4.48
pIC50 (Cytochrome P450 1A2): < 4.48
Activity [15]: Non-toxic
half-life [16]: 2.67 h
half-life [17]: ≥ 6 h
half-life [18]: ≥ 6 h
half-life [19]: ≥ 6 h
bioavailability [20]: 13%
clearance [21]: 9 mL/min/kg
bioavailability [22]: 51%
clearance [23]: 8 mL/min/kg
bioavailability [1]: 13%
clearance [2]: 60 mL/min/kg
pEC50 (Hepatitis C virus [3]): 10.60
pEC50 (Hepatitis C virus [4]): 10.60
pEC50 (Hepatitis C virus [5]): 11.50
Ratio EC50 (Hepatitis C virus [24]): 3.2
Ratio EC50 (Hepatitis C virus [6]): <=5
pEC50 (Hepatitis C virus [7]): 11.10
pEC50 (Hepatitis C virus [8]): 10.40

COC(=O)N[C@H](C(=O)N1CCC[C@H]1c1ncc(-c2ccc(-c3ccc(-c4cnc([C@@H]5CCCN5C(=O)[C@@H](NC(=O)OC)C(C)C)[nH]4)cc3)cc2)[nH]1)C(C)C [DACLATASVIR]
FC (Hepatitis C virus [10]): 3
FC (Hepatitis C virus [11]): 2
FC (Hepatitis C virus [13]): 2
pEC50 (Hepatitis C virus [3]): 9.50
pEC50 (Hepatitis C virus [4]): 9.90
pEC50 (Hepatitis C virus [5]): 11.40
Ratio EC50 (Hepatitis C virus [24]): >=30
Ratio EC50 (Hepatitis C virus [6]): >=25
pEC50 (Hepatitis C virus [7]): 11.00
pEC50 (Hepatitis C virus [8]): 10.40
